These are literature values, as cited in US20240100008A1, “ADMINISTRATION OF GLYCEROL TRIBENZOATE AND GLYCEROL PHENYLBUTYRATE FOR TREATMENT OF NEURODEGENERATIVE AND UREA CYCLE DISORDERS” (Rush University Medical Center, priority 2020, published 2024).

Molecules are shown by their SMILES.

Assay in data set [1]: not given
This is another data set of the same source.

Data set [2] deals with animal model of Alzheimer's disease.
Another data set has as its system NT-3. Conditions: brain cells.
Another data set relates to BDNF. Conditions: brain cells.
The next data set deals with DJ-1. Conditions: astrocytes and neurons.
Data set [3] deals with multiple sclerosis in mice.

In the case of `O=C(OCC(COC(=O)c1ccccc1)OC(=O)c1ccccc1)c1ccccc1` [glyceryl (i.e. glycerol) tribenzoate, glycerol tribenzoate], where the note is “in vivo”, the “release form of sodium benzoate” value is “sustained-release and a slow-release form”.
As for `O=C(CCCc1ccccc1)OCC(COC(=O)CCCc1ccccc1)OC(=O)CCCc1ccccc1` [glycerol phenylbutyrate, Glycerol phenylbutyrate], the side effect result in data set [1] (in vivo, po) is reported as “diarrhea is a common side effect”.
As to `O=C([O-])c1ccccc1.[Na+]` [sodium benzoate, Sodium benzoate], the side effects result in data set [1] (patients, high dose sodium benzoate several times a day) was “feel drowsy and also suffer from nausea, vomiting and headache”. Moreover, in data set [2], the memory and learning entry was “protecting memory and learning”; the oxidative stress result is recorded as “attenuating oxidative stress”. The “production of NT-3” value with NT-3 was “increases”. Moreover, the “excretion from the body” value (through urine) was “quickly excreted”. Moreover, in the data set with BDNF, the “production of BDNF” value is reported as “increases”. For the same compound, the DJ-1 protein level result with DJ-1 is “upregulates”. Further, the “disease process of multiple sclerosis” value in data set [3] was “suppresses”.
